The results in this text go back to ChEMBL document CHEMBL5126580, “Design, synthesis and biological evaluation of 2-pyrrolone derivatives as radioprotectors” (Bioorg Med Chem, 2022).

The source made the active and inactive calls. The calls are words filed in the database; no cut-off is given here.

Series [1] relates to MOLT-4. The experiment in a line: Cytotoxicity against human MOLT-4 cells assessed as reduction in cell viability measured after 1 hr by erythrosin B staining based dye exclusion assay. It is filed as toxicity. Particulars: molt-4, 1 h.
Series [2] has as its target Cellular tumor antigen p53 (Homo sapiens) (UniProt P04637). The experiment in a line: Inhibition of p53 in human MOLT-4 cells assessed as suppression of gamma-irradiation-induced decrease in cell viability at 20 to 100 uM preincubated for 1 hr followed by 10 Gy 137Cs gamma-ray exposure and measured after 27 hrs by erythrosin B staining based dye exclusion assay. Particulars: dose 20-100 µM, time 28.0 hrs.

For series [3] the target is unchanged. The experiment in a line: Inhibition of p53 in human MOLT-4 cells assessed as suppression of gamma-irradiation-induced decrease in cell viability at 50 to 100 uM preincubated for 1 hr followed by 10 Gy 137Cs gamma-ray exposure and measured after 27 hrs by erythrosin B staining based dye exclusion assay. Particulars: dose 50-100 µM, time 28.0 hrs.
Series [4] concerns MOLT-4. The experiment in a line: Cytotoxicity against human MOLT-4 cells assessed as reduction in cell viability at 10 to 20 uM measured after 1 hr by erythrosin B staining based dye exclusion assay. It is filed as toxicity. The settings on record: molt-4, 1 h, dose 10-20 µM.
For series [5], the system named is MOLT-4. The experiment in a line: Cytotoxicity against human MOLT-4 cells assessed as reduction in cell viability at 40 uM measured after 1 hr by erythrosin B staining based dye exclusion assay. It is filed as toxicity. The settings on record: molt-4, 1 h.
Series [6] deals with Cellular tumor antigen p53 (Homo sapiens) (UniProt P04637). The experiment in a line: Inhibition of p53 in human MOLT-4 cells assessed as suppression of gamma-irradiation-induced decrease in cell viability at 40 uM preincubated for 1 hr followed by 10 Gy 137Cs gamma-ray exposure and measured after 27 hrs by erythrosin B staining based dye exclusion assay. The settings on record: time 28.0 hrs.

Series [7] shares this target. The experiment in a line: Inhibition of p53 in human MOLT-4 cells assessed as suppression of gamma-irradiation-induced decrease in cell viability at 20 uM preincubated for 1 hr followed by 10 Gy 137Cs gamma-ray exposure and measured after 27 hrs by erythrosin B staining based dye exclusion assay. Particulars: time 28.0 hrs.
Series [8] deals with MOLT-4. The experiment in a line: Cytotoxicity against human MOLT-4 cells assessed as reduction in cell viability at 80 uM measured after 1 hr by erythrosin B staining based dye exclusion assay. The series is classed as toxicity. The settings on record: molt-4, 1 h.
The test system of series [9] is MOLT-4. The experiment in a line: Radioprotective activity in gamma-irradiated human MOLT-4 cells assessed as reduction in p53 expression at 3 to 100 uM preincubated for 1 hr followed by 10 Gy 137Cs gamma-ray exposure and measured after 6 hrs by Western blot analysis. The series is classed as functional, cell-based. The settings on record: dose 3-100 µM, time 7.0 hrs. On the technique in general: A western blot detects proteins with antibodies after separation by electrophoresis.

Chain of Cellular tumor antigen p53 (Homo sapiens) (P04637 whole entry, looked up): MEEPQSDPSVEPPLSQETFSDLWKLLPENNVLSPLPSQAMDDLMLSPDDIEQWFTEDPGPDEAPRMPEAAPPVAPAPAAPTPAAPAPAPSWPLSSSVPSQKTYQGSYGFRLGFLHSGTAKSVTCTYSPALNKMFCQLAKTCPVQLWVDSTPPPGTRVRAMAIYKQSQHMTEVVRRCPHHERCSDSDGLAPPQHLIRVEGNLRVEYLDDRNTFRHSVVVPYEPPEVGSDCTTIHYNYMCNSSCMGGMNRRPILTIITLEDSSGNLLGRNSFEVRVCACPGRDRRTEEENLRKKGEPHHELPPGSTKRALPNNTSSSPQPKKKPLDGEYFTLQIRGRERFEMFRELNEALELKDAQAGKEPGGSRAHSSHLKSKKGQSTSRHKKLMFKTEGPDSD

With `COC(=O)C1=C(C)N(c2cccc(OC)c2)C(=O)/C1=C\c1ccccc1S(=O)(=O)[O-].[Na+]`, the Activity result in the series with MOLT-4 [1] is listed as “Non-Toxic”. Consider `COc1cccc(N2C(=O)/C(=C\c3ccc(C(=O)O)cc3)C(C(=O)OC(C)(C)C)=C2C)c1`, for which, in the series with MOLT-4 [1], the Activity entry is recorded as “Toxic”. `CCCCCCOC(=O)C1=C(C)N(c2cccc(OC)c2)C(=O)/C1=C\c1ccc(C(=O)O)cc1`: the Activity entry in the series on MOLT-4 [1] is on record as “Toxic”. On the same count and under the same terms, for `COC(=O)C1=C(C)N(c2cccc(OC)c2)C(=O)/C1=C\c1ccc(OC)cc1` the value was “Toxic”.

In the case of `COC(=O)C1=C(C)N(c2ccccc2OC)C(=O)/C1=C\c1ccc(C(=O)O)cc1`, in series [2], the inhibition result was “Active”. For the compound `COC(=O)C1=C(C)N(c2cccc(O)c2)C(=O)/C1=C\c1ccc(C(=O)O)cc1`, the inhibition result in [3] was “Active”. `COC(=O)C1=C(C)N(c2cccc(OC)c2)C(=O)/C1=C\c1ccc(C(=O)NO)cc1`: the results for the Activity result in the series with MOLT-4 [4] and in the series on MOLT-4 [5] were “Toxic” and “Non-Toxic”, respectively. The inhibition result in [6] was “Active”. Take `COC(=O)C1=C(C)N(c2cccc(OC)c2)C(=O)/C1=C\c1ccc(C(=O)O)cc1`: the inhibition result in [7] is “Active”. Further, in the series on MOLT-4 [8], the Activity entry was “Toxic”. In the series on MOLT-4 [9], the result was Active. In the case of `COC(=O)C1=C(C)N(c2cccc(OC)c2)C(=O)/C1=C\c1cccc(C(=O)O)c1`, the inhibition entry in series [2] was “Active”. Consider `CNC(=O)C1=C(C)N(c2cccc(OC)c2)C(=O)/C1=C\c1ccc(C(=O)O)cc1`, for which, in series [3], the inhibition entry is “Active”. `COC(=O)C1=C(C)N(c2cccc(OC)c2)C(=O)/C1=C\c1ccc(-c2nnn[nH]2)cc1`: the outcome in the series with MOLT-4 [9] was Active. In series [2], the inhibition entry was “Active”. Take `COC(=O)C1=C(C)N(c2cccc(OC)c2)C(=O)/C1=C/c1ccc(C(=O)O)cc1`: in series [2], the inhibition result is “Active”.

Consider `COC(=O)C1=C(C)N(c2cccc(OC)c2)C(=O)/C1=C\c1ccncc1`, for which the Activity result in the series on MOLT-4 [1] is “Toxic”. As for `COC(=O)C1=C(C)N(c2cccc(OC)c2)C(=O)/C1=C\c1ccncc1O`, the Activity entry in the series on MOLT-4 [1] is “Toxic”.

In the case of `CCCCCCOc1cccc(N2C(=O)/C(=C\c3ccc(C(=O)O)cc3)C(C(=O)OC)=C2C)c1`, the Activity result in the series with MOLT-4 [1] was “Toxic”.

For the compound `CCOC(=O)c1ccc(/C=C2\C(=O)N(c3cccc(OC)c3)C(C)=C2C(=O)OC)cc1`, the Activity entry with MOLT-4 [1] was “Toxic”.

`COC(=O)C1=C(C)N(c2ccc(OC)cc2)C(=O)/C1=C\c1ccc(C(=O)O)cc1`: in [2], the inhibition result is “Active”. With `COC(=O)C1=C(C)N(c2cccc(OC)c2)C(=O)/C1=C\c1cncnc1`, the Activity entry in the series with MOLT-4 [1] is “Toxic”. For the compound `COC(=O)C1=C(C)N(c2cccc(OC)c2)C(=O)C1=Cc1ccc(C(=O)O)cc1`, the inhibition result in [2] was “Active”. In the case of `COC(=O)C1=C(C)N(c2cccc(OC)c2)C(=O)/C1=C\c1ccc([N+](=O)[O-])cc1`, the Activity result with MOLT-4 [1] is “Toxic”. Same read-out and setting: next, `COC(=O)C1=C(C)N(c2cccc(OC)c2)C(=O)/C1=C\c1ccc(Cl)cc1`: “Toxic”. On to `CCOC(=O)C1=C(C)N(c2cccc(OC)c2)C(=O)/C1=C\c1ccc(C(=O)O)cc1`, for which the inhibition result in series [2] was “Active”. Regarding `COC(=O)C1=C(C)N(c2cccc(OC(C)C)c2)C(=O)/C1=C\c1ccc(C(=O)O)cc1`, in series [7], the inhibition entry was “Active”. In the series with MOLT-4 [8], the Activity result is “Toxic”. The result in the series on MOLT-4 [9] was Active. For the compound `COC(=O)C1=C(C)N(c2ccccc2)C(=O)/C1=C\c1ccc(C(=O)O)cc1`, the inhibition entry in [2] was “Active”. For the compound `COC(=O)C1=C(C)N(c2cccc(OC)c2)C(=O)/C1=C\c1ccc(S(N)(=O)=O)cc1`, the Activity result in the series with MOLT-4 [1] is given as “Toxic”.
